Measurements reported in US12534452B2, “N-(1H-imidazol-2-yl)benzamide compound and pharmaceutical composition comprising the same as active ingredient” (KAINOS MEDICINE, INC., priority 2019, dated 2026).

biological target: IRAK4 (Homo sapiens (Human), UniProt Q9NWZ3); experiment: In vitro IRAK4 phosphorylation activity assay; format: biochemical; conditions: [γ-33P]-ATP, myelin basic protein substrate, 40 minutes at room temperature; categories
Procedure, shortened: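 Radiometric filter-binding assay, no compound–kinase preincubation; 8 mM MOPS pH 7.0, 0.2 mM EDTA, 10 mM Mg acetate, 0.33 mg/mL myelin basic protein substrate, [γ-33P]-ATP. Reaction 40 min at room temperature, stopped with phosphoric acid, scintillation counting; IC50 reported in categories.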

IRAK4, sequence (Q9NWZ3 whole entry): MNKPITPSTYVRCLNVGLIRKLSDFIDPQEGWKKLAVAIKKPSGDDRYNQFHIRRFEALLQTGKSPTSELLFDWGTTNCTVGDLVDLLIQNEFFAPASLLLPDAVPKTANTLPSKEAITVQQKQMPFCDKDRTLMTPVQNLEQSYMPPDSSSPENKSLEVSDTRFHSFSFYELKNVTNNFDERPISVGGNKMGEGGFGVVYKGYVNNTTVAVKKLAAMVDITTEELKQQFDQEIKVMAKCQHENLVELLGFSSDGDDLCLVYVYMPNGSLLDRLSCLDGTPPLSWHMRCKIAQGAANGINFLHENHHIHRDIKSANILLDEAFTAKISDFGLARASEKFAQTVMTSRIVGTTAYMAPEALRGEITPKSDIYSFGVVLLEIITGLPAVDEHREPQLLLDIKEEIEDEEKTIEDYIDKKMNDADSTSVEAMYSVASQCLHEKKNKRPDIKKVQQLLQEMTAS

SMILES	IC50
CCN1CCN(C(=O)CCCc2cn(-c3ccccc3)c(NC(=O)c3cccc(-c4cnn(C)c4)c3)n2)CC1 [Example 144, N-(4-(4-(4-ethylpiperazin-1-yl)-4-oxobutyl)-1-phenyl-1H-imidazol-2-yl)-3-(1-methyl-1H-pyrazol-4-yl)benzamide]	< 50 nM
CC(C)N1CCN(C(=O)CCCc2cn(-c3ccccc3)c(NC(=O)c3cccc(-c4cnn(C)c4)c3)n2)CC1 [Example 145, N-(4-(4-(4-isopropylpiperazin-1-yl)-4-oxobutyl)-1-phenyl-1H-imidazol-2-yl)-3-(1-methyl-1H-pyrazol-4-yl)benzamide]	< 50 nM
CN(C)C1CCN(C(=O)CCCc2cn(-c3ccccc3)c(NC(=O)c3cccc(-c4cnn(C)c4)c3)n2)CC1 [Example 146, N-(4-(4-(4-(dimethylamino)piperidin-1-yl)-4-oxobutyl)-1-phenyl-1H-imidazol-2-yl)-3-(1-methyl-1H-pyrazol-4-yl)benzamide]	< 50 nM
CN(C)C1CCC(NC(=O)CCCc2cn(-c3ccccc3)c(NC(=O)c3cccc(-c4cnn(C)c4)c3)n2)CC1 (stereo not shown) [Example 147, N-(4-(4-((4-(dimethylamino)cyclohexyl)amino)-4-oxobutyl)-1-phenyl-1H-imidazol-2-yl)-3-(1-methyl-1H-pyrazol-4-yl)benzamide]	< 50 nM
CN1CCC(NC(=O)CCCc2cn(-c3ccccc3)c(NC(=O)c3cccc(-c4cnn(C)c4)c3)n2)CC1 [Example 148, 3-(1-methyl-1H-pyrazol-4-yl)-N-(4-(4-((1-methylpiperidin-4-yl)amino)-4-oxobutyl)-1-phenyl-1H-imidazol-2-yl)benzamide]	50 to 100 nM
Cn1cc(-c2cccc(C(=O)Nc3nc(CCCC(=O)N4CCN(C5CC5)CC4)cn3-c3ccccc3)c2)cn1 [Example 149, N-(4-(4-(4-cyclopropylpiperazin-1-yl)-4-oxobutyl)-1-phenyl-1H-imidazol-2-yl)-3-(1-methyl-1H-pyrazol-4-yl)benzamide]	< 50 nM
Cn1cc(-c2cccc(C(=O)Nc3nc(CCCC(=O)Nc4ccncc4)cn3-c3ccccc3)c2)cn1 [Example 150, 3-(1-methyl-1H-pyrazol-4-yl)-N-(4-(4-oxo-4-(pyridin-4-ylamino)butyl)-1-phenyl-1H-imidazol-2-yl)benzamide]	< 50 nM
Cn1cc(-c2cccc(C(=O)Nc3nc(CCCC(=O)NN4CCCC4)cn3-c3ccccc3)c2)cn1 [Example 151, 3-(1-methyl-1H-pyrazol-4-yl)-N-(4-(4-oxo-4-(pyrrolidin-1-ylamino)butyl)-1-phenyl-1H-imidazol-2-yl)benzamide]	< 50 nM
Cn1cc(-c2cccc(C(=O)Nc3nc(CCCC(=O)NN4CCCCC4)cn3-c3ccccc3)c2)cn1 [Example 152, 3-(1-methyl-1H-pyrazol-4-yl)-N-(4-(4-oxo-4-(piperidin-1-ylamino)butyl)-1-phenyl-1H-imidazol-2-yl)benzamide]	50 to 100 nM
CN1CCN(NC(=O)CCCc2cn(-c3ccccc3)c(NC(=O)c3cccc(-c4cnn(C)c4)c3)n2)CC1 [Example 153, 3-(1-methyl-1H-pyrazol-4-yl)-N-(4-(4-((4-methylpiperazin-1-yl)amino)-4-oxobutyl)-1-phenyl-1H-imidazol-2-yl)benzamide]	50 to 100 nM
Cn1cc(-c2cccc(C(=O)Nc3nc(CCCC(=O)N4CCC(N5CCCC5)CC4)cn3-c3ccccc3)c2)cn1 [Example 154, 3-(1-methyl-1H-pyrazol-4-yl)-N-(4-(4-oxo-4-(4-(pyrrolidin-1-yl)piperidin-1-yl)butyl)-1-phenyl-1H-imidazol-2-yl)benzamide]	< 50 nM
CN(C)c1ccc(NC(=O)CCCc2cn(-c3ccccc3)c(NC(=O)c3cccc(-c4cnn(C)c4)c3)n2)cc1 [Example 155, N-(4-(4-((4-(dimethylamino)phenyl)amino)-4-oxobutyl)-1-phenyl-1H-imidazol-2-yl)-3-(1-methyl-1H-pyrazol-4-yl)benzamide]	< 50 nM
Cn1cc(-c2cccc(C(=O)Nc3nc(CCCC(=O)NC4CCC(O)CC4)cn3-c3ccccc3)c2)cn1 [Example 156, N-(4-(4-(((1R,4R)-4-hydroxycyclohexyl)amino)-4-oxobutyl)-1-phenyl-1H-imidazol-2-yl)-3-(1-methyl-1H-pyrazol-4-yl)benzamide]	< 50 nM
Cn1cc(-c2cccc(C(=O)Nc3nc(CCCC(=O)NC4CCOCC4)cn3-c3ccccc3)c2)cn1 [Example 157, 3-(1-methyl-1H-pyrazol-4-yl)-N-(4-(4-oxo-4-((tetrahydro-2H-pyran-4-yl)amino)butyl)-1-phenyl-1H-imidazol-2-yl)benzamide]	< 50 nM
Cn1cc(-c2cccc(C(=O)Nc3nc(CCCC(=O)NCCCN4CCCCC4)cn3-c3ccccc3)c2)cn1 [Example 158, 3-(1-methyl-1H-pyrazol-4-yl)-N-(4-(4-oxo-4-((3-(piperidin-1-yl)propyl)amino)butyl)-1-phenyl-1H-imidazol-2-yl)benzamide]	< 50 nM
Cn1cc(-c2cccc(C(=O)Nc3nc(CCCC(=O)NCCN4CCCCC4)cn3-c3ccccc3)c2)cn1 [Example 159, 3-(1-methyl-1H-pyrazol-4-yl)-N-(4-(4-oxo-4-((2-(piperidin-1-yl)ethyl)amino)butyl)-1-phenyl-1H-imidazol-2-yl)benzamide]	< 50 nM

SMILES	IC50
Cn1cc(-c2cccc(C(=O)Nc3nc(CCCC(=O)N4CCOCC4)cn3-c3ccccc3)c2)cn1 [Example 160, 3-(1-methyl-1H-pyrazol-4-yl)-N-(4-(4-morpholino-4-oxobutyl)-1-phenyl-H-imidazol-2-yl)benzamide]	< 50 nM
COC1CCC(NC(=O)CCCc2cn(-c3ccccc3)c(NC(=O)c3cccc(-c4cnn(C)c4)c3)n2)CC1 (stereo not shown) [Example 161, N-(4-(4-((4-methoxycyclohexyl)amino)-4-oxobutyl)-1-phenyl-1H-imidazol-2-yl)-3-(1-methyl-1H-pyrazol-4-yl)benzamide]	< 50 nM
CN(C)CCNC(=O)CCCc1cn(-c2ccccc2)c(NC(=O)c2cccc(-c3cnn(C)c3)c2)n1 [Example 162, N-(4-(4-((2-(dimethylamino)ethyl)amino)-4-oxobutyl)-1-phenyl-1H-imidazol-2-yl)-3-(1-methyl-1H-pyrazol-4-yl)benzamide]	50 to 100 nM
CN(C)CCCNC(=O)CCCc1cn(-c2ccccc2)c(NC(=O)c2cccc(-c3cnn(C)c3)c2)n1 [Example 163, N-(4-(4-((3-(dimethylamino)propyl)amino)-4-oxobutyl)-1-phenyl-1H-imidazol-2-yl)-3-(1-methyl-1H-pyrazol-4-yl)benzamide]	50 to 100 nM
Cn1cc(-c2cccc(C(=O)Nc3nc(CCCC(=O)NCCO)cn3-c3ccccc3)c2)cn1 [Example 164, N-(4-(4-((2-hydroxyethyl)amino)-4-oxobutyl)-1-phenyl-1H-imidazol-2-yl)-3-(1-methyl-1H-pyrazol-4-yl)benzamide]	< 50 nM
Cn1cc(-c2cccc(C(=O)Nc3nc(CCCC(=O)NCCCO)cn3-c3ccccc3)c2)cn1 [Example 165, N-(4-(4-((3-hydroxypropyl)amino)-4-oxobutyl)-1-phenyl-1H-imidazol-2-yl)-3-(1-methyl-1H-pyrazol-4-yl)benzamide]	< 50 nM
CC1CCCCN1C(=O)CCCc1cn(-c2ccccc2)c(NC(=O)c2cccc(-c3cnn(C)c3)c2)n1 (stereo not shown) [Example 166, 3-(1-methyl-1H-pyrazol-4-yl)-N-(4-(4-(2-methylpiperidin-1-yl)-4-oxobutyl)-1-phenyl-1H-imidazol-2-yl)benzamide]	< 50 nM
Cn1cc(-c2cccc(C(=O)Nc3nc(CCCC(=O)N4CCC(C)(C)CC4)cn3-c3ccccc3)c2)cn1 [Example 167, N-(4-(4-(4,4-dimethylpiperidin-1-yl)-4-oxobutyl)-1-phenyl-1H-imidazol-2-yl)-3-(1-methyl-1H-pyrazol-4-yl)benzamide]	< 50 nM
Cn1cc(-c2cccc(C(=O)Nc3nc(CCCC(=O)N4CCC(C#N)CC4)cn3-c3ccccc3)c2)cn1 [Example 168, N-(4-(4-(4-cyanopiperidin-1-yl)-4-oxobutyl)-1-phenyl-1H-imidazol-2-yl)-3-(1-methyl-TH-pyrazol-4-yl)benzamide]	< 50 nM
Cn1cc(-c2cccc(C(=O)Nc3nc(CCCC(=O)N4CCC(O)CC4)cn3-c3ccccc3)c2)cn1 [Example 169, N-(4-(4-(4-hydroxypiperidin-1-yl)-4-oxobutyl)-1-phenyl-1H-imidazol-2-yl)-3-(1-methyl-1H-pyrazol-4-yl)benzamide]	< 50 nM
Cn1cc(-c2cccc(C(=O)Nc3nc(CCCC(=O)NCC(C)(C)O)cn3-c3ccccc3)c2)cn1 [Example 170, N-(4-(4-((2-hydroxy-2-methylpropyl)amino)-4-oxobutyl)-1-phenyl-1H-imidazol-2-yl)-3-(1-methyl-1H-pyrazol-4-yl)benzamide]	< 50 nM
Cn1cc(-c2cccc(C(=O)Nc3nc(CCCC(=O)NCCC(C)(C)O)cn3-c3ccccc3)c2)cn1 [Example 171, N-(4-(4-((3-hydroxy-3-methylbutyl)amino)-4-oxobutyl)-1-phenyl-1H-imidazol-2-yl)-3-(1-methyl-1H-pyrazol-4-yl)benzamide]	< 50 nM
Cn1cc(-c2cccc(C(=O)Nc3nc(CCCC(=O)NCC4CCOCC4)cn3-c3ccccc3)c2)cn1 [Example 172, 3-(1-methyl-1H-pyrazol-4-yl)-N-(4-(4-oxo-4-(((tetrahydro-2H-pyran-4-yl)methyl)amino)butyl)-1-phenyl-1H-imidazol-2-yl)benzamide]	< 50 nM
Cn1cc(-c2cccc(C(=O)Nc3nc(CCCC(=O)N4CCN(Cc5ccc(OC(F)(F)F)cc5)CC4)cn3-c3ccccc3)c2)cn1 [Example 173, 3-(1-methyl-1H-pyrazol-4-yl)-N-(4-(4-oxo-4-(4-(4-(trifluoromethoxy)benzyl)piperazin-1-yl)butyl)-1-phenyl-1H-imidazol-2-yl)benzamide]	50 to 100 nM
Cn1cc(-c2cccc(C(=O)Nc3nc(CCCC(=O)N4CCCC[C@@H]4CCO)cn3-c3ccccc3)c2)cn1 [Example 174, (R)—N-(4-(4-(2-(2-hydroxyethyl)piperidin-1-yl)-4-oxobutyl)-1-phenyl-1H-imidazol-2-yl)-3-(1-methyl-1H-pyrazol-4-yl)benzamide]	< 50 nM
